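Cultured in 96-well plates, cells were exposed to test compound for 48 hours across five concentrations. GI50: concentration for 50% inhibition of growth.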 The source made the active and inactive calls. Cut-off read from the data, not from the text of the source: active = GI50 up to about 1.1 µM and inactive = higher.
How the values were obtained:
Assay in all cases: DTP human tumour cell line panel, 48 h
786-0 = tested on: 786-0
A498 = tested on: A498
A549 = tested on: A549
ACHN = tested on: ACHN
BT-549 = tested on: BT-549
CAKI-1 = tested on: CAKI-1
CCRF-CEM = tested on: CCRF-CEM
COLO 205 = tested on: COLO 205
DU-145 = tested on: DU-145
EKVX = tested on: EKVX
HCC 2998 = tested on: HCC 2998
HCT-116 = tested on: HCT-116
HCT-15 = tested on: HCT-15
HL-60 = tested on: HL-60
HOP-62 = tested on: HOP-62
HOP-92 = tested on: HOP-92
HT-29 = tested on: HT-29
Hs-578T = tested on: Hs-578T
IGROV-1 = tested on: IGROV-1
K562 = tested on: K562
KM12 = tested on: KM12
LOX IMVI = tested on: LOX IMVI
M14 = tested on: M14
MCF7 = tested on: MCF7
MDA-MB-231 = tested on: MDA-MB-231
MDA-MB-435 = tested on: MDA-MB-435
MOLT-4 = tested on: MOLT-4
Malme-3M = tested on: Malme-3M
NCI-H226 = tested on: NCI-H226
NCI-H23 = tested on: NCI-H23
NCI-H460 = tested on: NCI-H460
NCI-H522 = tested on: NCI-H522
NCI/ADR-RES = tested on: NCI/ADR-RES
OVCAR-3 = tested on: OVCAR-3
OVCAR-4 = tested on: OVCAR-4
OVCAR-5 = tested on: OVCAR-5
OVCAR-8 = tested on: OVCAR-8
PC-3 = tested on: PC-3
RPMI-8226 = tested on: RPMI-8226
RXF 393 = tested on: RXF 393
SF-268 = tested on: SF-268
SF-295 = tested on: SF-295
SF-539 = tested on: SF-539
SK-MEL-28 = tested on: SK-MEL-28
SK-MEL-2 = tested on: SK-MEL-2
SK-MEL-5 = tested on: SK-MEL-5
SK-OV-3 = tested on: SK-OV-3
SN12C = tested on: SN12C
SNB-19 = tested on: SNB-19
SNB-75 = tested on: SNB-75
SR = tested on: SR
SW-620 = tested on: SW-620
T47D = tested on: T47D
TK-10 = tested on: TK-10
U-251 = tested on: U-251
UACC-257 = tested on: UACC-257
UACC-62 = tested on: UACC-62
UO-31 = tested on: UO-31
MDA-N = tested on: MDA-N

`CC(=O)C1=C(O)/C(=C\c2ccco2)OC1=O` was tested, and the GI50 (786-0) was > 10 µM (inactive), the GI50 (A498) was > 10 µM (inactive) and the GI50 (A549) was > 10 µM (inactive). The GI50 (ACHN) was > 10 µM (inactive), the GI50 (BT-549) was > 10 µM (inactive) and the GI50 (CAKI-1) was > 10 µM (inactive). The GI50 (CCRF-CEM) was > 10 µM (inactive), the GI50 (COLO 205) was > 10 µM (inactive) and the GI50 (DU-145) was > 10 µM (inactive). For the same compound, the GI50 (EKVX) was > 10 µM (inactive), the GI50 (HCC 2998) was > 10 µM (inactive) and the GI50 (HCT-116) was > 10 µM (inactive). For the same compound, the GI50 (HCT-15) was greater than 10 µM, the GI50 (HL-60) was > 10 µM (inactive) and the GI50 (HOP-62) was > 10 µM (inactive). The GI50 (HOP-92) was > 10 µM (inactive), the GI50 (HT-29) was > 10 µM (inactive) and the GI50 (Hs-578T) was > 10 µM (inactive). For the same compound, the GI50 (IGROV-1) was > 10 µM (inactive), the GI50 (K562) was > 10 µM (inactive) and the GI50 (KM12) was > 10 µM (inactive). For the same compound, the GI50 (LOX IMVI) was > 10 µM (inactive), the GI50 (M14) was > 10 µM (inactive) and the GI50 (MCF7) was > 10 µM (inactive). The GI50 (MDA-MB-231) was > 10 µM (inactive), the GI50 (MDA-MB-435) was > 10 µM (inactive) and the GI50 (MOLT-4) was > 10 µM (inactive). For the same compound, the GI50 (Malme-3M) was > 10 µM (inactive), the GI50 (NCI-H226) was > 10 µM (inactive) and the GI50 (NCI-H23) was > 10 µM (inactive). The GI50 (NCI-H460) was > 10 µM (inactive), the GI50 (NCI-H522) was > 10 µM (inactive) and the GI50 (NCI/ADR-RES) was > 10 µM (inactive). The GI50 (OVCAR-3) was > 10 µM (inactive), the GI50 (OVCAR-4) was > 10 µM (inactive) and the GI50 (OVCAR-5) was > 10 µM (inactive). For the same compound, the GI50 (OVCAR-8) was > 10 µM (inactive), the GI50 (PC-3) was > 10 µM (inactive) and the GI50 (RPMI-8226) was > 10 µM (inactive). The GI50 (RXF 393) was > 10 µM (inactive), the GI50 (SF-268) was > 10 µM (inactive) and the GI50 (SF-295) was > 10 µM (inactive). For the same compound, the GI50 (SF-539) was > 10 µM (inactive), the GI50 (SK-MEL-28) was > 10 µM (inactive) and the GI50 (SK-MEL-2) was > 10 µM (inactive). The GI50 (SK-MEL-5) was > 10 µM (inactive), the GI50 (SK-OV-3) was > 10 µM (inactive) and the GI50 (SN12C) was > 10 µM (inactive). For the same compound, the GI50 (SNB-19) was > 10 µM (inactive), the GI50 (SNB-75) was > 10 µM (inactive) and the GI50 (SR) was > 10 µM (inactive). The GI50 (SW-620) was > 10 µM (inactive), the GI50 (T47D) was > 10 µM (inactive) and the GI50 (TK-10) was > 10 µM (inactive). The GI50 (U-251) was > 10 µM (inactive), the GI50 (UACC-257) was > 10 µM (inactive) and the GI50 (UACC-62) was > 10 µM (inactive). For the same compound, the GI50 (UO-31) was > 10 µM (inactive).
For `O=[N+]([O-])C(=C/C1CCCCC1)/C(=C\C1CCCCC1)[N+](=O)[O-]`, the GI50 (786-0) was 1.84 µM (inactive), the GI50 (A498) was 15.3 µM (inactive) and the GI50 (A549) was 18.6 µM (inactive). For the same compound, the GI50 (ACHN) was 3.5 µM (inactive), the GI50 (BT-549) was 5.42 µM (inactive) and the GI50 (CAKI-1) was 3.85 µM (inactive). The GI50 (CCRF-CEM) was 2.62 µM (inactive), the GI50 (COLO 205) was 3.21 µM (inactive) and the GI50 (DU-145) was 13.3 µM (inactive). The GI50 (EKVX) was 9.4 µM (inactive), the GI50 (HCC 2998) was 20.2 µM (inactive) and the GI50 (HCT-116) was 6.43 µM (inactive). For the same compound, the GI50 (HCT-15) was 1.85 µM, the GI50 (HL-60) was 2.09 µM (inactive) and the GI50 (HOP-62) was 3.71 µM (inactive). For the same compound, the GI50 (HOP-92) was 7.05 µM (inactive), the GI50 (HT-29) was 5.48 µM (inactive) and the GI50 (Hs-578T) was 2.84 µM (inactive). The GI50 (IGROV-1) was 5.27 µM (inactive), the GI50 (K562) was 4.49 µM (inactive) and the GI50 (KM12) was 11.1 µM (inactive). The GI50 (LOX IMVI) was 2.12 µM (inactive), the GI50 (M14) was 4.05 µM (inactive) and the GI50 (MCF7) was 5.3 µM (inactive). For the same compound, the GI50 (MDA-MB-231) was 2.73 µM (inactive), the GI50 (MDA-MB-435) was 4.56 µM (inactive) and the GI50 (MOLT-4) was 1.56 µM (inactive). For the same compound, the GI50 (Malme-3M) was 2.2 µM (inactive), the GI50 (NCI-H226) was 7.28 µM (inactive) and the GI50 (NCI-H23) was 2.99 µM (inactive). The GI50 (NCI-H460) was 5.16 µM (inactive), the GI50 (NCI-H522) was 1.8 µM (inactive) and the GI50 (NCI/ADR-RES) was 2.47 µM (inactive). The GI50 (OVCAR-3) was 9.23 µM (inactive), the GI50 (OVCAR-4) was 18.9 µM (inactive) and the GI50 (OVCAR-5) was 11.7 µM (inactive). The GI50 (OVCAR-8) was 3.3 µM (inactive), the GI50 (PC-3) was 6.32 µM (inactive) and the GI50 (RPMI-8226) was 0.316 µM (active). The GI50 (RXF 393) was 1.49 µM (inactive), the GI50 (SF-268) was 3.27 µM (inactive) and the GI50 (SF-295) was 16.3 µM (inactive). The GI50 (SF-539) was 2.18 µM (inactive), the GI50 (SK-MEL-28) was 5.06 µM (inactive) and the GI50 (SK-MEL-2) was 16.3 µM (inactive). The GI50 (SK-MEL-5) was 7.83 µM (inactive), the GI50 (SK-OV-3) was 21.7 µM (inactive) and the GI50 (SN12C) was 3.24 µM (inactive). For the same compound, the GI50 (SNB-19) was 18.4 µM (inactive), the GI50 (SNB-75) was 14.1 µM (inactive) and the GI50 (SR) was 1.8 µM (inactive). For the same compound, the GI50 (SW-620) was 3.35 µM (inactive), the GI50 (T47D) was 9.73 µM (inactive) and the GI50 (TK-10) was 6.27 µM (inactive). The GI50 (U-251) was 3.73 µM (inactive), the GI50 (UACC-257) was 8.63 µM (inactive) and the GI50 (UACC-62) was 5.7 µM (inactive). The GI50 (UO-31) was 7.87 µM (inactive).
In the case of `COP(=O)(OC)C(O)/C=C/c1ccco1` (stereo not drawn), the GI50 (786-0) is reported as > 100 µM (inactive), the GI50 (A498) is reported as > 100 µM (inactive) and the GI50 (A549) is reported as > 100 µM (inactive). For the same compound, the GI50 (ACHN) was > 100 µM (inactive), the GI50 (BT-549) was > 100 µM (inactive) and the GI50 (CAKI-1) was > 100 µM (inactive). For the same compound, the GI50 (COLO 205) was > 100 µM (inactive), the GI50 (DU-145) was > 100 µM (inactive) and the GI50 (EKVX) was > 100 µM (inactive). For the same compound, the GI50 (HCT-116) was > 100 µM (inactive), the GI50 (HCT-15) was greater than 100 µM and the GI50 (HL-60) was > 100 µM (inactive). For the same compound, the GI50 (HOP-62) was > 100 µM (inactive), the GI50 (HOP-92) was > 100 µM (inactive) and the GI50 (HT-29) was > 100 µM (inactive). The GI50 (Hs-578T) was > 100 µM (inactive), the GI50 (IGROV-1) was > 100 µM (inactive) and the GI50 (K562) was > 100 µM (inactive). For the same compound, the GI50 (KM12) was > 100 µM (inactive), the GI50 (LOX IMVI) was > 100 µM (inactive) and the GI50 (M14) was > 100 µM (inactive). The GI50 (MCF7) was > 100 µM (inactive), the GI50 (MDA-MB-435) was > 100 µM (inactive) and the GI50 (MDA-N) was > 100 µM (inactive). For the same compound, the GI50 (MOLT-4) was > 100 µM (inactive), the GI50 (Malme-3M) was > 100 µM (inactive) and the GI50 (NCI-H226) was > 100 µM (inactive). For the same compound, the GI50 (NCI-H23) was > 100 µM (inactive), the GI50 (NCI-H522) was > 100 µM (inactive) and the GI50 (NCI/ADR-RES) was > 100 µM (inactive). The GI50 (OVCAR-3) was > 100 µM (inactive), the GI50 (OVCAR-4) was > 100 µM (inactive) and the GI50 (OVCAR-5) was > 100 µM (inactive). The GI50 (OVCAR-8) was > 100 µM (inactive), the GI50 (PC-3) was > 100 µM (inactive) and the GI50 (RPMI-8226) was > 100 µM (inactive). The GI50 (RXF 393) was > 100 µM (inactive), the GI50 (SF-268) was > 100 µM (inactive) and the GI50 (SF-295) was > 100 µM (inactive). The GI50 (SK-MEL-28) was > 100 µM (inactive), the GI50 (SK-MEL-2) was > 100 µM (inactive) and the GI50 (SK-MEL-5) was > 100 µM (inactive). The GI50 (SK-OV-3) was > 100 µM (inactive), the GI50 (SN12C) was > 100 µM (inactive) and the GI50 (SNB-19) was > 100 µM (inactive). The GI50 (SR) was > 100 µM (inactive), the GI50 (SW-620) was > 100 µM (inactive) and the GI50 (T47D) was > 100 µM (inactive). The GI50 (U-251) was > 100 µM (inactive), the GI50 (UACC-257) was > 100 µM (inactive) and the GI50 (UACC-62) was > 100 µM (inactive). For the same compound, the GI50 (UO-31) was > 100 µM (inactive).
